Measurements taken from patent US12129255B2, “Pyrido [2,3-d]pyrimidine derivatives as inhibitors of human immunodeficiency virus replication” (VIIV HEALTHCARE UK (No. 5) LIMITED, priority 2019, dated 2024).
Read-outs that look alike come from different tables or passages of the source.

Columns and labels:
recombinant NL4-3 virus = assay: Antiviral activity toward recombinant NL4-3 Renilla luciferase virus in MT-2 cells; type: cell-based, HIV
Protocol: MT-2 cells, 293T cells and the proviral DNA clone of NL4-3 virus were obtained from the NIH AIDS Research and Reference Reagent Program. MT-2 cells were propagated in RPMI 1640 media supplemented with 10% heat inactivated fetal bovine serum (FBS), […]. The 293T cells were propagated in DMEM media supplemented with 10% heat inactivated FBS, […]. A recombinant NL4-3 proviral clone, in which a section of the nef gene was replaced with the Renilla luciferase gene, was used to make the reference virus used in these studies. The recombinant virus was prepared through transfection of the recombinant NL4-3 proviral clone into 293T cells using Transit-293 Transfection Reagent from Mirus Bio LLC (Madison, WI). Supernatant was harvested after 2-3 days and the amount of virus present was titered in MT-2 cells using luciferase enzyme activity as a marker by measuring luciferase enzyme activity. Luciferase was quantitated using the EnduRen Live Cell Substrate from Promega (Madison, WI). Antiviral activities of compounds toward the recombinant virus were quantified by measuring luciferase activity in MT-2 cells infected for 4-5 days with the recombinant virus in the presence of serial dilutions of the compound. […]

[1] = Metabolism in human hepatocytes; type: in vitro ADME
Protocol: Cryopreserved hepatocytes in suspension from human, monkey, dog, rat and mouse were thawed and diluted in pre-warmed William's Medium E (pH 7.4). Aliquots of the hepatocyte suspension were added to test compound working solutions prepared in pre-warmed William's Medium E (pH 7.4) to achieve final concentrations of 0.5 μM in 0.5×10^6 cells per milliliter and ≤0.25% DMSO. These samples were incubated at 37° C. with 5% carbon dioxide and shaking at 200 rpm. The incubations were performed in singlet. […] Following completion of the experiment, samples were analyzed by LC-MS/MS. […] This percentage is calculated by dividing the peak area ratio of test compound following incubation (tx) by the peak area ratio of test compound at time-zero (t0) just prior to incubation. • The elimination rate constant (k, min^−1) is calculated using nonlinear regression fitting with the following equation: Ct=C0×e^(−k×t) • where: • C0 is the initial concentration represented as the peak area ratio (test compound peak area/internal standard peak area); • Ct is the concentration at t represented as the area ratio (test compound peak area/internal standard peak area); • e is the base of the natural logarithm • t is the time (min); • k is the elimination rate constant (min^−1). • The half-life (t1/2, min) is calculated using the following equation: […]

[2] = Allometric scaling of pre-clinical PK parameters to predict dose in human
Protocol: Human dose predictions were performed using Phoenix WinNonlin (v 8.0) software and Microsoft Excel using the ModelRisk add-in for population modeling. Human estimates for each compound's CLTp were obtained based on average allometric scaling of mouse, rat, monkey and dog IV data (body weight scaling factor of 0.75) and an average (body weight scaling factor of 1.0) from all species for VSS. Human IV parameters (Vc, Ka, K12, K21, Kel) were determined using Mean Residence Time (MRT) scaling from preclinical species (mouse, rat, dog and cyno) using the human VSS and CLTp estimates. Absorption (Ka) was determined by deconvolution (PO) or from the half-life (SC) in preclinical species (Ka=LN(2)/t1/2). The predicted human dose for PO and SC is calculated with consideration of human variability and is calculated to cover 95% of the human population.

**Q.** For Cn1nc(NS(C)(=O)=O)c2c(Cl)ccc(-n3c([C@H](Cc4cc(F)cc(F)c4)NC(=O)Cn4nc(C(F)F)c5c4C(F)(F)[C@@H]4C[C@H]54)nc4nc(OCCC(F)(F)F)ccc4c3=O)c21 (atropisomer, axis not shown; (P)) [Example 1, N—((S)-1-((3P)-3-(4-chloro-1-methyl-3-(methylsulfonamido)-1H-indazol-7-yl)-4-oxo-7-(3,3,3-trifluoropropoxy)-3,4-dihydropyrido[2,3-d]pyrimidin-2-yl)-2-(3,5-difluorophenyl)ethyl)-2-((3bS,4aR)-3-(difluoromethyl)-5,5-difluoro-3b,4,4a,5-tetrahydro-1H-cyclopropa[3,4]cyclopenta[1,2-c]pyrazol-1-yl)acetamide], which EC50 (recombinant NL4-3 virus; Human immunodeficiency virus 1, NL43, MT2, read-out: EC50 (anti-HIV virology assay, revised average)) is on record?
**A.** The EC50 was 0.025 ± 0.008 nM.

**Q.** What about the EC50 (recombinant NL4-3 virus; Human immunodeficiency virus 1, NL43, MT2, read-out: EC50 when initially tested) of the same molecule?
**A.** The EC50 was 0.034 nM.

**Q.** And the “intrinsic clearance in human hepatocytes” value ([1]; 0.5 μM, 0.5×10^6 cells per milliliter)?
**A.** The value was 0.312 mL/min/g liver.

**Q.** What about the half-life at 0.5 μM ([1]; human, cryopreserved hepatocytes in suspension, pH 7.4, 0.5×10^6 cells per milliliter) of the same molecule?
**A.** The half-life at 0.5 μM was over 8 h.

**Q.** And the “predicted human QD PO dose” value ([2]; once-daily oral, allometric scaling, to cover 95% of the human population)?
**A.** Its value is “less than 10 mg”.

**Q.** And the “predicted Q1M SC dose in human lower than for Example 60.2” value ([2]; once-monthly subcutaneous, from SC rat PK and predicted human clearance)?
**A.** Its value is 15 fold.

**Q.** And the “predicted once-daily oral dose in human lower than for Example 60.2” value ([2]; to maintain efficacious plasma concentration)?
**A.** The value was 7 fold.
